Where two headings read alike, the source gives them in different places.
Columns and labels:
HL-60 cells = test: MTS cytotoxicity test with HL-60 cells; format: cell-based; details: Homo sapiens
Excerpt: Human cancer cell lines, unless otherwise noted, are obtained from the American Type Culture Collection (Rockville, Md.). The following drug-sensitive parental cell lines, and their derived drug-resistant counterparts, are obtained from the originators as listed: (a) S1 (parental line from a subclone of human colon carcinoma line LS174T) and derived S1-M1-3.2 (herein called S1-M1) which expresses the MXR drug transporter protein, are provided by Dr. L. Greenberger, Wyeth Research (Rabindran, S. K., He, H., Singh, M., Brown, E., Collins, K. I., Annable, T., and Greenberger, L. M. Reversal of a novel multidrug resistance mechanism in human colon carcinoma cells by fumitremorgin C. Cancer Res., 58:5850-5858,1998); (b) parental HL-60 human promyelocytic leukemia line and derived HL-60/ADR, which expresses the MRP1 drug transporter protein, are provided by Dr. M. Center, University of Kansas (McGrath, T., and Center, M. S. Adriamycin resistance in HL60 cells in the absence of detectable P-glycoprotein. Biochem. Biophys. […] J. Biol. Chem., 261: 7762-7770,1986) via Dr. L. Greenberger, Wyeth Research.
The assay, which is sold in kit form by Promega (Madison, Wis.; CellTiter 96 AQueous Non-Radioactive Cell Proliferation Assay), is based on the conversion by viable cells, but not by dead cells, of the tetrazolium salt, MTS (3-(4,5-dimethylthiazol-2-yl)-5-(3-carboxymethoxyphenyl)-2-(4-sulphophenyl)-2H-tetrazolium, inner salt), into a water-soluble colored formazan which is detected by spectrophotometry. Compounds are tested at nine concentrations, in order to determine IC50 values. For the test procedure, cells are harvested by trypsinization (or, in the case of non-adherent cells, by simple resuspension), washed, counted and distributed to wells of 96-well flat-bottom microtiter plates at 1000 cells per well in 200 μL of medium. In addition, one row of wells on a separate plate received cells as above (“time 0” plate). All plates are incubated at 37° in humidified 5% CO2 in air for about 24 hr.
On day 2, compounds for test are diluted and added to wells. Compounds are dissolved in DMSO at 10 mg/mL. For each compound, nine serial 2-fold dilutions are prepared in DMSO. Ten μL of each dilution in DMSO is transferred to 100 μL of medium, mixed well, and then 5 μL of this dilution is transferred in quadruplicate to wells containing cells. […] Plates are returned to the incubator for three days. At the time of drug addition to the experimental plates, the MTS assay is run on the “time 0” plate. This produced the “time 0 MTS value” which is related to the number of viable cells per well at the time of drug addition.
After three days of culture with test compounds (day 5 overall), the MTS assay is done on all wells of the experimental plates. The absorbance values of the quadruplicate sample wells are averaged and divided by the average of the “time 0” values. […] The nine values for each compound are plotted against concentration, and the concentration that produced a relative color yield half way between the maximum and minimum is taken as the IC50 value.
HL-60/ADR cells overexpress the multidrug resistance protein MRP1 which mediates resistance to some chemotherapeutics (Gottesman, M. M., Fojo, T., and Bates, S. E. Multidrug resistance in cancer: role of ATP-dependent transporters. Nature Rev. Cancer, 2: 48-58, 2002). The IC50 values of representative examples of this invention, as well as reference compounds, on HL-60/ADR are compared to values on the sensitive parental HL-60 line.

microtubules = test: Competitive binding test, [3H]paclitaxel; set-up: species or system bovine; details: [3H]paclitaxel 2.1 μM, competitor 20 μM (5 μM for unlabeled paclitaxel)
Method: Medium is RPMI-1640 with L-glutamine, supplemented with 10% heat-inactivated fetal calf serum, 100 units/ml penicillin, and 100 μg/ml streptomycin (Gibco, Grand Island, N.Y.). Microtubule-associated protein (MAP)-rich tubulin, containing about 70% tubulin and 30% MAPs (#ML113), and highly purified tubulin (>99% pure, #TL238), both from bovine brain, are obtained from Cytoskeleton, Inc., Denver, Colo. PEM buffer (80 mM piperazine-N,N′-bis[2-ethanesulfonic acid], pH 6.9, 1 mM ethylene glycol-bis(β-aminoethyl ether)-N,N,N′,N′-tetraacetic acid, 1 mM magnesium chloride) and guanosine 5′-triphosphate (GTP) are also obtained from Cytoskeleton. [3H]paclitaxel, specific activity 14.7 Ci/mmol, is purchased from Moravek Biochemicals (Brea, Calif.). [^3H]vinblastine, specific activity 9.60 Ci/mmol and MicroSpin G-50 columns are obtained from Amersham Biosciences (Piscataway, N.J.). […] Other reagents are obtained from Sigma (St. Louis, Mo.).
The binding of examples of this invention to highly purified tubulin is studied by competitive inhibition methods. […] To study possible competition at the taxane site, on the other hand, polymerized tubulin (microtubules) is used because paclitaxel binds preferentially to microtubules.
For competition with [^3H]paclitaxel, highly purified tubulin is dissolved in PEM buffer containing 0.75 M glutamate and 25 μM dideoxy-GTP; final protein concentration is 0.25 to 0.35 mg/mL (2.5 to 3.5 μM). These conditions foster the rapid formation of short, stable microtubule polymers (Hamel, E., del Campo, A. A., and Lin, C. M. Stability of tubulin polymers formed with dideoxyguanosine nucleotides in the presence and absence of microtubule-associated proteins. J. Biol. Chem., 259: 2501-2508, 1984). This solution is incubated for 30 min at 37° to allow microtubules to form. Then [^3H]paclitaxel (final concentration of 2.1 μM, 1.2 Ci/mmol) and competitor (final concentration of 20 μM, except 5 μM for unlabeled paclitaxel) are added to aliquots of the polymerized tubulin solution and incubation at 37° is continued for another 30 min. […] The reactions are then centrifuged at top speed in an Eppendorf 5415C microfuge for 20 min at room temperature in order to pellet the microtubule protein. Triplicate aliquots of each supernatant are mixed with scintillation fluid and counted in a liquid scintillation spectrometer. From the amount of radioactivity in the supernatants and the measured total starting radioactivity, the amount of [^3H]paclitaxel bound to pelleted microtubule protein is calculated. The ability of each competitor to inhibit radioligand binding to pelleted protein is expressed as a percent of controls without any competitor.

[1] = HL-60 cells, MTS, read-out: IC50 HL-60

Row | SMILES | IC50 (HL-60 cells; [1]) [nM] | [3H]Paclitaxel binding, percent of control without competitor, Mean (microtubules) [%] | IC50 (HL-60 cells; HL-60, read-out: IC50 HL-60) [nM]
1 | CNCCCOc1cc(F)c(-c2c(Cl)nc3ncnn3c2NCC(F)(F)F)c(F)c1.Cl [Example 3a, 5-Chloro-6-{2,6-difluoro-4-[3-(methylamino)propoxy]phenyl}-N-(2,2,2-trifluoroethyl)[1,2,4]triazolo[1,5-a]pyrimidin-7-amine hydrogen chloride Salt] | 26 | 105 | 
2 | CC[C@]1(O)C[C@H]2CN(CCc3c([nH]c4ccccc34)[C@@](C(=O)OC)(c3cc4c(cc3OC)N(C=O)[C@H]3[C@@](O)(C(=O)OC)[C@H](OC(C)=O)[C@]5(CC)C=CCN6CC[C@]43[C@@H]65)C2)C1 [Vincristine, reference compound] | 2.5 | 22 | 
3 | CC(=O)O[C@H]1C(=O)[C@@]2(C)[C@H]([C@H](OC(=O)c3ccccc3)[C@]3(O)C[C@H](OC(=O)[C@H](O)[C@@H](NC(=O)c4ccccc4)c4ccccc4)C(C)=C1C3(C)C)[C@]1(OC(C)=O)CO[C@@H]1C[C@@H]2O [Paclitaxel, reference compound] | 5.7 | 35 | 
4 | CN(C)CCCOc1cc(F)c(-c2c(Cl)nc3ncnn3c2NCC(F)(F)F)c(F)c1.Cl [Example 4a, 5-Chloro-6-{4-[3-(dimethylamino)propoxy]-2,6-difluorophenyl}-N-(2,2,2-trifluoroethyl)[1,2,4]triazolo[1,5-a]pyrimidin-7-amine Hydrogen chloride Salt] | 52 | 104 | 
5 | C[C@H](Nc1c(-c2c(F)cc(OCCCN(C)C)cc2F)c(Br)nc2ncnn12)C(F)(F)F [Example 25, 5-Bromo-6-{4-[3-(dimethylamino)propoxy]-2,6-difluorophenyl}-N-[(1S)-2,2,2-trifluoro-1-methylethyl][1,2,4]triazolo[1,5-a]pyrimidin-7-amine] | 104 | 99 | 
6 | CNCCCOc1cc(F)c(-c2c(Cl)nc3ncnn3c2C2CCCCCC2)c(F)c1.O=C(O)C(F)(F)F [Example 32, 3-[4-(5-Chloro-7-cycloheptyl[1,2,4]triazolo[1,5-a]pyrimidin-6-yl)-3,5-difluorophenoxy]-N-methylpropan-1-amine trifluoroacetic acid salt] | 7.1 | 93 | 
7 | C[C@H](Nc1c(-c2c(F)cc(OCCCN(C)C)cc2F)c(Cl)nc2ncnn12)C(F)(F)F.Cl [Example 1a, 5-chloro-6-{4-[3-(dimethylamino)propoxy]-2,6-difluorophenyl}-N-[(1S)-2,2,2-trifluoro-1-methylethyl][1,2,4]triazolo[1,5-a]pyrimidin-7-amine hydrogen chloride Salt] | 71 | 108 | 
8 | CNCCCOc1cc(F)c(-c2c(Cl)nc3ncnn3c2N[C@@H](C)C(F)(F)F)c(F)c1.Cl [Example 2a, 5-Chloro-6-{2,6-difluoro-4-[3-(methylamino)propoxy]phenyl}-N-[(1S)-2,2,2-trifluoro-1-methylethyl][1,2,4]triazolo[1,5-a]pyrimidin-7-amine hydrogen chloride] |  | 104 | 43
9 | OCCCOc1cc(F)c(-c2c(Cl)nc3ncnn3c2C2CCCCCC2)c(F)c1 [Example 30, 3-[4-(5-Chloro-7-cycloheptyl[1,2,4]triazolo[1,5-a]pyrimidin-6-yl)-3,5-difluorophenoxy]propan-1-ol] | 55 | 91 | 
10 | C[C@H](Nc1c(-c2c(F)cc(OCCCO)cc2F)c(Cl)nc2ncnn12)C(F)(F)F [Example 20, 3-[4-(5-Chloro-7-{[(1S)-2,2,2-trifluoro-1-methylethyl]amino}[1,2,4]triazolo[1,5-a]pyrimidin-6-yl)-3,5-difluorophenoxy]propan-1-ol] | 155 | 104 | 

— patent US7507739B2, “6-[(substituted)phenyl]triazolopyrimidines as anticancer agents” (Wyeth, priority 2003, dated 2009)
